In brackets after ≈: the same amount, converted by molar mass.
These compounds were tested against EGFR (UniProt P00533).
EGFR, sequence (P00533 whole entry, looked up): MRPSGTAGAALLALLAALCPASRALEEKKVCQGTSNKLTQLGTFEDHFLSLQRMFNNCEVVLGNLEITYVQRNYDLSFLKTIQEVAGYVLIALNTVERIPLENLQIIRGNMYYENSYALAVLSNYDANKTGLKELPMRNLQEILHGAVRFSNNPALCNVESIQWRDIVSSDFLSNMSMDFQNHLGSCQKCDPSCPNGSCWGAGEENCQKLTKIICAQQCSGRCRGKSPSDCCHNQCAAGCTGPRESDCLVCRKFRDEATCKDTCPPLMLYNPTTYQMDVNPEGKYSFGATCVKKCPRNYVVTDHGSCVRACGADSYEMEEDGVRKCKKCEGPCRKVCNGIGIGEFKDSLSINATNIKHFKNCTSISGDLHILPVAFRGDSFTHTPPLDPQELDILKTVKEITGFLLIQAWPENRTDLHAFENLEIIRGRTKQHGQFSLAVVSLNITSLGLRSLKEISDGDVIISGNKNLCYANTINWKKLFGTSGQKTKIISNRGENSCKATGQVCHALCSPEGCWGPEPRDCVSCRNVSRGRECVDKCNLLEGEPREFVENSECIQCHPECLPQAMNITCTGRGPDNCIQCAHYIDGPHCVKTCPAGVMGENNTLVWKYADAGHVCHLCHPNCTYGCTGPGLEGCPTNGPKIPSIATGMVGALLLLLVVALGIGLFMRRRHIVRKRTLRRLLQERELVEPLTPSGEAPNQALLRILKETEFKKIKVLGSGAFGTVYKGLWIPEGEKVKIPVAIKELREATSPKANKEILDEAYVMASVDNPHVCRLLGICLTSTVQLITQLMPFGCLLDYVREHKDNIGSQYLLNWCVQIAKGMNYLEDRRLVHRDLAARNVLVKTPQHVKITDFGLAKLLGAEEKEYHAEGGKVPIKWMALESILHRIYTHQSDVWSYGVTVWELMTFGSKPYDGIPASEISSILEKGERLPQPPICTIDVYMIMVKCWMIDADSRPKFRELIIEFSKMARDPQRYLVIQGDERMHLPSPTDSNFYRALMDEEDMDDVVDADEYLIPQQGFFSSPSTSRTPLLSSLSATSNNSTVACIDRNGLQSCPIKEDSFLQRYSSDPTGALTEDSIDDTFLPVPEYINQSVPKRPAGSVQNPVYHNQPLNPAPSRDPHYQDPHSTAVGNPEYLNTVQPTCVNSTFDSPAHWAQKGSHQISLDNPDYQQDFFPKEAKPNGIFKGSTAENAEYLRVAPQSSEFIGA

Q: Which IC50 does the source give for `O=C(Nc1cccc(Nc2ncnc(-n3c(=O)[nH]c4ccccc43)n2)c1)O[C@@H]1CCOC1` here?
A: 2.4 to 3.5 mg/L (≈ 5.54 to 8.08 µM)

Q: Which IC50 does the source give for `C=CCNc1cc(-c2ncnc(Nc3cc(OC)c(OC)c(OC)c3)n2)ccn1` here?
A: > 4.5 mg/L

Q: How did the IC50 turn out when `CN(c1cccc(Cl)c1)c1ncnc(Nc2ccc(CC(=O)O)cc2)n1` was run?
A: < 0.4 mg/L

Q: With `COc1ccc2c(c1)nc(NCc1ccccn1)n2-c1ncnc(Nc2cc(OC)c(OC)c(OC)c2)n1.COc1ccc2nc(NCc3ccccn3)n(-c3ncnc(Nc4cc(OC)c(OC)c(OC)c4)n3)c2c1` as the compound, how does the IC50 read?
A: > 4.5 mg/L

Q: `COc1ccc(Nc2ncnc(Nc3cccc(-c4ccnc(C)n4)c3)n2)cc1OC` was tested. Which IC50 did it give?
A: > 4.5 mg/L

Q: With `COc1ccc(-c2cn[nH]c2Nc2ncnc(Nc3cc(OC)c(OC)c(OC)c3)n2)cc1OC` as the compound, how does the IC50 read?
A: 3.5 to 4.5 mg/L (≈ 7.3 to 9.38 µM)

Q: For `COC(=O)c1cccc(Nc2ncnc(Nc3cc(-c4ccco4)n[nH]3)n2)c1`, which IC50 is on record?
A: > 4.5 mg/L

Q: With `COc1ccccc1Nc1ncnc(-c2ccccc2)n1` as the compound, how does the IC50 read?
A: > 4.5 mg/L

Q: How did the IC50 turn out when `Nc1nc2ccccc2n1-c1ncnc(N2C(=O)c3ccccc3C2=O)n1` was run?
A: > 4.5 mg/L

Q: Which IC50 does the source give for `COc1cc(Nc2ncnc(-c3ccc(N4CCNCC4)nc3)n2)cc(OC)c1OC` here?
A: 3.5 to 4.5 mg/L (≈ 8.26 to 10.6 µM)

Q: For `COc1ccc(Nc2ncnc(Nc3ccc(N4CCCCC4)cc3)n2)cc1OC`, which IC50 is on record?
A: 0.4 to 2.4 mg/L (≈ 0.984 to 5.9 µM)

Q: For `CN(c1cccc(Cl)c1)c1ncnc(Nc2ccncc2)n1`, which IC50 is on record?
A: < 0.4 mg/L

Q: How did the IC50 turn out when `COc1cc(C)c(Nc2ncnc(Nc3cc(-c4ccc(Cl)cc4)n[nH]3)n2)cc1OC` was run?
A: 3.5 to 4.5 mg/L (≈ 7.99 to 10.3 µM)

Q: How did the IC50 turn out when `O=c1[nH]c2ccccc2n1-c1ncnc(Nc2ccccc2)n1` was run?
A: > 4.5 mg/L

Q: `COc1cc(Nc2ncnc(Nc3cccc4ccccc34)n2)cc(OC)c1OC` was tested. Which IC50 did it give?
A: < 0.4 mg/L

Q: Which IC50 does the source give for `COC(=O)c1sccc1Nc1ncnc(N2CCCc3cc(C)ccc32)n1` here?
A: > 4.5 mg/L

Q: With `COc1cc(Nc2ncnc(-n3ccnc3)n2)cc(OC)c1OC` as the compound, how does the IC50 read?
A: > 4.5 mg/L

Q: `COc1cc(Nc2ncnc(-c3cccnc3Nc3ccccc3)n2)cc(OC)c1OC` was tested. Which IC50 did it give?
A: > 4.5 mg/L

Q: For `c1csc(-c2ncnc(Nc3ccc(N4CCOCC4)cc3)n2)c1`, which IC50 is on record?
A: > 4.5 mg/L

Q: `Oc1ccc(Nc2ncnc(-c3ccccc3)n2)cc1` was tested. Which IC50 did it give?
A: > 4.5 mg/L

Q: For `Cc1ccc(Cl)cc1Nc1ncnc(Nc2cc(Cl)ccc2C)n1`, which IC50 is on record?
A: < 0.4 mg/L

Q: `Nc1nc2ccccc2n1-c1ncnc(Nc2cccc(Cl)c2)n1` was tested. Which IC50 did it give?
A: 0.4 to 2.4 mg/L (≈ 1.18 to 7.11 µM)

Q: How did the IC50 turn out when `COc1cc(Nc2ncnc(-n3c(NCc4ccc(OC(F)(F)F)cc4)nc4ccccc43)n2)cc(OC)c1OC` was run?
A: > 4.5 mg/L

Q: How did the IC50 turn out when `COc1cc(Nc2ncnc(Nc3cc(-c4ccc(C(=O)N(C)C)cc4)n[nH]3)n2)cc(OC)c1OC` was run?
A: 0.4 to 2.4 mg/L (≈ 0.815 to 4.89 µM)

Q: How did the IC50 turn out when `O=c1[nH]c2ccccc2n1-c1ncnc(Nc2cccc3ccccc23)n1` was run?
A: > 4.5 mg/L

Q: How did the IC50 turn out when `COc1cc(Nc2ncnc(-n3c(NCc4cccs4)nc4ccccc43)n2)cc(OC)c1OC` was run?
A: 0.4 to 2.4 mg/L (≈ 0.817 to 4.9 µM)

Q: `CC(C)(C)c1cc(Nc2ncnc(Nc3ccc(CC(=O)O)cc3)n2)[nH]n1` was tested. Which IC50 did it give?
A: 0.4 to 2.4 mg/L (≈ 1.09 to 6.53 µM)

Q: Which IC50 does the source give for `Clc1ncnc(Nc2ccc(OCc3ccccc3)cc2)n1` here?
A: > 4.5 mg/L

Q: With `COc1cc(Nc2ncnc(-n3c(N[C@@H](CO)c4ccccc4)nc4ccccc43)n2)cc(OC)c1OC` as the compound, how does the IC50 read?
A: 0.4 to 2.4 mg/L (≈ 0.779 to 4.67 µM)

Q: `CCOC(=O)C(Cc1cccc(Nc2ncnc(Nc3cc(-c4ccco4)n[nH]3)n2)c1)(NC(C)=O)C(=O)OCC` was tested. Which IC50 did it give?
A: > 4.5 mg/L

Q: Which IC50 does the source give for `COc1cc(Nc2ncnc(-n3c(N[C@@H](C)c4ccccc4)nc4ccccc43)n2)cc(OC)c1OC` here?
A: 2.4 to 3.5 mg/L (≈ 4.82 to 7.03 µM)

Q: Which IC50 does the source give for `COc1cc(Nc2ncnc(Nc3cc(C(C)(C)C)[nH]n3)n2)cc(OC)c1OC` here?
A: 0.4 to 2.4 mg/L (≈ 1 to 6.01 µM)

Q: How did the IC50 turn out when `C#Cc1cccc(Nc2ncnc(-n3c(=O)[nH]c4ccccc43)n2)c1` was run?
A: 0.4 to 2.4 mg/L (≈ 1.22 to 7.31 µM)

Q: `Nc1ncnc(Nc2cc(Cl)ccc2O)n1` was tested. Which IC50 did it give?
A: > 4.5 mg/L

Q: `COC(=O)Cc1cccc(Nc2ncnc(Nc3ccc(C)c(O)c3)n2)c1` was tested. Which IC50 did it give?
A: 0.4 to 2.4 mg/L (≈ 1.09 to 6.57 µM)

Q: With `Nc1ccc(Nc2ncnc(-c3ccccc3)n2)cc1` as the compound, how does the IC50 read?
A: > 4.5 mg/L

Q: For `O=C(O)c1cccc(Nc2ncnc(-n3c(NCc4ccccc4)nc4ccccc43)n2)c1`, which IC50 is on record?
A: < 0.4 mg/L

Q: `COc1ncnc(Nc2cc(OC)c(OC)c(OC)c2)n1` was tested. Which IC50 did it give?
A: > 4.5 mg/L

Q: `C=CCNc1nc2ccccc2n1-c1ncnc(Nc2cc(OC)c(OC)c(OC)c2)n1` was tested. Which IC50 did it give?
A: > 4.5 mg/L

Q: `COc1cc(Nc2ncnc(-c3cccnc3Nc3ccc(Cl)cc3C)n2)cc(OC)c1OC` was tested. Which IC50 did it give?
A: > 4.5 mg/L

Q: Which IC50 does the source give for `COc1cc(Nc2ncnc(-n3c(Nc4ccc(Cl)cc4)nc4ccccc43)n2)cc(OC)c1OC` here?
A: > 4.5 mg/L

Q: Which IC50 does the source give for `COc1cc(Nc2ncnc(Nc3cc(Cl)c(O)c(Cl)c3)n2)cc(OC)c1OC` here?
A: < 0.4 mg/L

Q: With `COc1cc(Nc2ncnc(NC3CC3c3ccccc3)n2)cc(OC)c1OCCN1CCOCC1` (configuration not stated) as the compound, how does the IC50 read?
A: < 0.4 mg/L

Q: How did the IC50 turn out when `CC(=O)Nc1ccc(Nc2ncnc(-c3cccs3)n2)cc1` was run?
A: > 4.5 mg/L

Q: How did the IC50 turn out when `O=c1[nH]c2ccccc2n1-c1ncnc(Nc2ncccn2)n1` was run?
A: > 4.5 mg/L

Q: `COc1ccc(Nc2ncnc(-n3c(N)nc4ccccc43)n2)cc1` was tested. Which IC50 did it give?
A: 2.4 to 3.5 mg/L (≈ 7.2 to 10.5 µM)

Q: How did the IC50 turn out when `COc1ccc(N(C)c2ncnc(Nc3ccc(OC)c(OC)c3)n2)cc1` was run?
A: < 0.4 mg/L

Q: `CCN(c1cccc(C)c1)c1ncnc(Nc2cc(OC)c(OC)c(OC)c2)n1` was tested. Which IC50 did it give?
A: < 0.4 mg/L

Q: With `COc1cc(Nc2ncnc(NCc3ccccc3)n2)cc(OC)c1OC` as the compound, how does the IC50 read?
A: < 0.4 mg/L

Q: For `COc1cc(Nc2ncnc(-n3c(Nc4ccc(C)cc4)nc4ccccc43)n2)cc(OC)c1OC`, which IC50 is on record?
A: > 4.5 mg/L

Q: For `COc1cc(Nc2ncnc(NN3CCOCC3)n2)cc(OC)c1OC`, which IC50 is on record?
A: > 4.5 mg/L

Q: For `COc1cc(Nc2ncnc(-n3c(NC(C)C)nc4ccccc43)n2)cc(OC)c1OC`, which IC50 is on record?
A: > 4.5 mg/L
